# Reference: ChEMBL document CHEMBL3351824, “Synthesis and biological evaluation of novel tacrine derivatives and tacrine-coumarin hybrids as cholinesterase inhibitors” (J Med Chem, 2014)
# pIC50, pKi: −log10 of the molar value.
# Legend:
# Acetylcholinesterase [1] = target: T1, Acetylcholinesterase (Homo sapiens, UniProt P22303)
# Description: Inhibition of human recombinant AChE pre-incubated for 5 mins before acetylthiocholine substrate addition by Ellman's method
# Cholinesterase = Cholinesterase (Homo sapiens, UniProt P06276)
# Description: Inhibition of human BuChE pre-incubated for 5 mins before butylthiocholine substrate addition by Ellman's method
# Acetylcholinesterase [2] = target: T1, Acetylcholinesterase; remark: listed apart in the source
# Description: Inhibition of human recombinant AChE assessed as dissociation constant for enzyme-inhibitor complex by Lineweaver-Burk plot
# Acetylcholinesterase [3] = target: T1, Acetylcholinesterase; remark: listed apart in the source
# Description: Inhibition of human recombinant AChE assessed as dissociation constant for enzyme-inhibitor-substrate complex by Lineweaver-Burk plot
# Cholinesterase, sequence (P06276 whole entry): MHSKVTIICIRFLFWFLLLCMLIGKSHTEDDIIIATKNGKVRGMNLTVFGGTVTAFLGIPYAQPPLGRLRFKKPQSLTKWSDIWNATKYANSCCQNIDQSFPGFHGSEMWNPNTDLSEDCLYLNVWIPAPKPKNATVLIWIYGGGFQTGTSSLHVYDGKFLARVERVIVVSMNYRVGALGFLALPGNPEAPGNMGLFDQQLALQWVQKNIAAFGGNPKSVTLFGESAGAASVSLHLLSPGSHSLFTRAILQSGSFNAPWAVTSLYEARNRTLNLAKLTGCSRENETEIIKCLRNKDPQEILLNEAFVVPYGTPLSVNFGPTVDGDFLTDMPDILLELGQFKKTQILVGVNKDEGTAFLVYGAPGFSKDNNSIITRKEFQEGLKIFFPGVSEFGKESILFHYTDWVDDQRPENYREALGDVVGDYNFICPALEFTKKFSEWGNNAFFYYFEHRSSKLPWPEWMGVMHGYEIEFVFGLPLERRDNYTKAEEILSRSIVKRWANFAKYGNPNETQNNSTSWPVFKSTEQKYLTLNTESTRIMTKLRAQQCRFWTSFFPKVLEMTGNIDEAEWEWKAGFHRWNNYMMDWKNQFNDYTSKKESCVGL
# T1 sequence (P22303 whole entry): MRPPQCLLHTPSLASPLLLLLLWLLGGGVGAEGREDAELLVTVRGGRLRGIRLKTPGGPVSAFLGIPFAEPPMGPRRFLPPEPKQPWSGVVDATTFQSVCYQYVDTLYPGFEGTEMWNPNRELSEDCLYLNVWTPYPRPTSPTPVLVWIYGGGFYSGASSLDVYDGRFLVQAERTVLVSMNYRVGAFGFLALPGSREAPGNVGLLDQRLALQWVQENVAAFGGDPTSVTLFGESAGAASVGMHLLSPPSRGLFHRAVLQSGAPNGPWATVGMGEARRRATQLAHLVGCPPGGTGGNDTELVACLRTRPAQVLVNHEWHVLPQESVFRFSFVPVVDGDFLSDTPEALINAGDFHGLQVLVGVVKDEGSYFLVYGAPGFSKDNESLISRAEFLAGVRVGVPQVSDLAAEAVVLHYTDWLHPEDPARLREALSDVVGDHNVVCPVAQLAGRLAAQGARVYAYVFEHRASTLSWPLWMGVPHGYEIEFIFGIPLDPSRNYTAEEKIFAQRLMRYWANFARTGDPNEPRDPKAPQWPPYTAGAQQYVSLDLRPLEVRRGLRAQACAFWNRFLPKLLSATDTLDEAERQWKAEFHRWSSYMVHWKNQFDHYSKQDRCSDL
SMILES,pIC50 (Acetylcholinesterase [1]),pIC50 (Cholinesterase),pKi (Acetylcholinesterase [2]),pKi (Acetylcholinesterase [3])
CN(CCC(=O)NCCCNc1c2c(nc3ccccc13)CCCC2)C1CCCCC1,6.40,5.62,,
CN(CCC(=O)NCCCCNc1c2c(nc3ccccc13)CCCC2)C1CCCCC1,6.98,5.65,,
CCN(CCC(=O)NCCCCNc1c2c(nc3ccccc13)CCCC2)C1CCCCC1,7.03,6.64,6.70,6.48
O=C(Cc1cc(=O)oc2cc(O)ccc12)NNC(=S)Nc1c2c(nc3ccccc13)CCCC2,5.09,5.85,5.71,4.03
O=C(Cc1cc(=O)oc2cc(O)ccc12)NCCCCNc1c2c(nc3ccccc13)CCCC2,7.81,6.48,8.39,7.63
CCN(CCC(=O)NCCNc1c2c(nc3ccccc13)CCCC2)C1CCCCC1,6.63,6.12,,
O=C(Cc1cc(=O)oc2cc(O)ccc12)NCCCNc1c2c(nc3ccccc13)CCCC2,6.56,6.08,,
O=C(Cc1cc(=O)oc2cc(O)ccc12)N/N=C1\SCC(=O)N1c1c2c(nc3ccccc13)CCCC2,4.80,5.25,5.63,4.19
CN(CCC(=O)NCCNc1c2c(nc3ccccc13)CCCC2)C1CCCCC1,6.24,5.69,,
CCN(CCC(=O)NCCCNc1c2c(nc3ccccc13)CCCC2)C1CCCCC1,7.58,6.57,7.09,7.10
O=C(Cc1cc(=O)oc2cc(O)ccc12)NCCNc1c2c(nc3ccccc13)CCCC2,5.54,4.90,,
